Assay [1] deals with human fascin His474 to Lys or Ala mutants. The assay is described as follows: Chamber migration of fascin siRNA-treated 4T1 cells rescued with His474 mutants of human fascin. It is filed as cell-based. The note with it: His474 to Lys or Ala human fascin in fascin siRNA-treated 4T1 cells. As to the method:
(§1) Boyden Chamber Cell Migration Assay. Cells (5×10^4) suspended in starvation medium were added to the upper chamber of an insert (6.5 mm diameter, 8-micrometer pore size, Becton Dickenson), and the insert was placed in a 24-well dish containing starvation medium with or without 10% FBS (Yang et al. 2005, Shan et al. 2006). When used, inhibitors were added to both chambers. Migration assays were carried out for 4-6 hours and cells were fixed with 3.7% formaldehyde. Cells were stained with crystal violet staining solution, and cells on the upper side of the insert were removed with a cotton swab. Three randomly selected fields (10× objectives) on the lower side of the insert were photographed, and the migrated cells were counted. The migration was expressed as either the average number of migrated cells in a field or as percentage of migrated cells in positive control. Percentage was calculated with the formula P=100×(M−Mnc)/Mpc, where P is the percentage of migrated cells, M is the number of migrated cells, Mnc is the number of migrated cells in negative controls, and Mpc is the number of migrated cells in positive controls.

In assay [2] the target is T1, villin (Homo sapiens, UniProt P09327).
T1 sequence (P09327 1-827): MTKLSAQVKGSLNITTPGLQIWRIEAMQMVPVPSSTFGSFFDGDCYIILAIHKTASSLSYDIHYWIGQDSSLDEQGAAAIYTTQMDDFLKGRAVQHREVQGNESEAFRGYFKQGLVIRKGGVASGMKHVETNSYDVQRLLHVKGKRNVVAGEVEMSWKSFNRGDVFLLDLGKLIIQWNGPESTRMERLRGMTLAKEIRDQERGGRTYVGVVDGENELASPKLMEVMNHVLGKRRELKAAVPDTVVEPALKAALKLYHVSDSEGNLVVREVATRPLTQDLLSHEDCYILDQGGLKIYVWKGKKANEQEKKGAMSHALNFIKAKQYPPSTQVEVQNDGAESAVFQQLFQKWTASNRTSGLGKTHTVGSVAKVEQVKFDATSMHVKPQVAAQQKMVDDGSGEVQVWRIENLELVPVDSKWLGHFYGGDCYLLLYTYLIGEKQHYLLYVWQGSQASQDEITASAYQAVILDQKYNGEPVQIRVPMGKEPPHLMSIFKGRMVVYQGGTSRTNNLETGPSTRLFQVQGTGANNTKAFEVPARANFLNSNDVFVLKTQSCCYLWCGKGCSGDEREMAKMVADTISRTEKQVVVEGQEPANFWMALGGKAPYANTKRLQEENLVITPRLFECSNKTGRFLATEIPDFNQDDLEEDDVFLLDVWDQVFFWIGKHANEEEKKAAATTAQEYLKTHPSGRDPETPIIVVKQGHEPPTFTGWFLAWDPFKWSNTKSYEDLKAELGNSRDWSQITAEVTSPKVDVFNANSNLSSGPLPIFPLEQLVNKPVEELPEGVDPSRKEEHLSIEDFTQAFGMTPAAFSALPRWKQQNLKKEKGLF
Kind of assay: Binding of macroketone to villin in vitro.

Assay [3] addresses T1, villin. The assay is described as follows: Migration of fascin siRNA-treated 4T1 cells rescued with villin. More on the design: expressed in transfected cells; host or cells: 4T1 mouse mammary tumor cells treated with fascin siRNA. The note with it: villin over-expression in fascin siRNA-treated 4T1 cells. It is filed as cell-based. How it is done: as §1
Assay [4] addresses T2, fascin (Homo sapiens, UniProt Q16658). Kind of assay: Chamber migration of fascin siRNA-treated 4T1 cells rescued with human fascin. It is filed as cell-based. Further details: expressed in transfected cells; host or cells: 4T1 mouse mammary tumor cells treated with mouse fascin siRNA 2. The note with it: human fascin in fascin siRNA-treated 4T1 cells. As to the method:
as §1

For another assay, the target named is T3, Drosophila fascin (Drosophila melanogaster, UniProt Q24524).
T3 construct: expressed in transfected cells; host or cells: 4T1 mouse mammary tumor cells treated with fascin siRNAs
T3 sequence (Q24524 1-512): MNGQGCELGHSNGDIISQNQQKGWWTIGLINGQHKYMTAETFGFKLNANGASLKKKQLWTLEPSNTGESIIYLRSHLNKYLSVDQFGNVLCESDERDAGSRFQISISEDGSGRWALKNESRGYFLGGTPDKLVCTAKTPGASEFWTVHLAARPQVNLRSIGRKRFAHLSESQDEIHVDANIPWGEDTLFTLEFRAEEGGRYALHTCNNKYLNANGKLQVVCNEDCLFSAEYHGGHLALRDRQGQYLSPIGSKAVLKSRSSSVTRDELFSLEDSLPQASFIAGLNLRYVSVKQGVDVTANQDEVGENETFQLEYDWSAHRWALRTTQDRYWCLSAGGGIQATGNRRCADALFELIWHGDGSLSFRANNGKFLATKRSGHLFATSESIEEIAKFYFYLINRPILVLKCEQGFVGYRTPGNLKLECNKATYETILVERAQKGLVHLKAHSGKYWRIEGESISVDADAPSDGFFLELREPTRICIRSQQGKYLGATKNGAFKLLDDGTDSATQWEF
Kind of assay: Migration of fascin siRNA-treated 4T1 cells rescued with Drosophila fascin. As to conditions: Drosophila fascin in fascin siRNA-treated 4T1 cells. It is filed as cell-based. As to the method:
as §1

Assay [5] deals with T2, fascin. Kind of assay: F-actin binding assay, high-speed centrifugation. Further details: GST (N); made in house; host or cells: Escherichia coli BL21.

For `COC1C=CCCCCC(=O)CCC(C)=CC(C)C1O` (stereo not drawn) [macroketone, Migrastatin ketone], the “inhibition of rescued migration” value in assay [1] was “not inhibited”. Further, at villin [2], the “binding to villin in vitro” value is “did not bind”. Besides, the “sensitivity of rescued migration” value is “insensitive” at villin [3], “sensitive” at fascin [4] and “no sensitivity” on Drosophila fascin. Also, on fascin [5], the “fascin pulled down by F-actin” value is recorded as “significantly less fascin was pulled down”.

Source of the values: patent publication US20100297109A1, “METHODS FOR INHIBITING FASCIN” (Cornell University, priority 2007, published 2010).
